pKi: −log10 of the molar value.
molecular target: mTOR kinase (purified recombinant mTOR(1360-2549)+GBL) (Homo sapiens, UniProt P42345); assay: In vitro mTOR kinase assay (TR-FRET); format: biochemical; conditions: class of Ki in the mTOR kinase assay; read-out: mTOR Activity Level
Text: a. In vitro mTOR Kinase Assay
The reaction is stopped by an addition of a Terbium-labeled phospho-specific antibody, e.g., Tb-labeled anti-p4E-BP1 T37/T46, (Invitrogen, product #PR8835A), EDTA, and TR-FRET buffer solution (Invitrogen, Product #PR3756B). Product formation is detected by way of time-resolved fluorescence resonance energy transfer (TR-FRET), which occurs when the phosphorylated substrate and labeled antibody are in close proximity due to phospho-specific binding. Enzymatic activity is measured as an increase in TR-FRET signal using a Perkin Elmer Envision plate reader.
Compound activity is tested in 10 point dose curves starting at the highest final concentration of 10 uM. They are serially diluted in 100% DMSO prior to further dilution with assay buffer. […] 8 μL of solution containing 2 nM Tb-anti-p4E-BP1 antibody & 10 mM EDTA diluted TR-FRET buffer is then added and incubated for 30 minutes to stop the reaction. The plate is scanned with the Envision plate reader. Ki values are calculated in Assay Explorer using the Morrison ATP-competitive tight binding equation for Ki apparent determination.

Sequence of mTOR kinase (purified recombinant mTOR(1360-2549)+GBL) (P42345 1360-2549): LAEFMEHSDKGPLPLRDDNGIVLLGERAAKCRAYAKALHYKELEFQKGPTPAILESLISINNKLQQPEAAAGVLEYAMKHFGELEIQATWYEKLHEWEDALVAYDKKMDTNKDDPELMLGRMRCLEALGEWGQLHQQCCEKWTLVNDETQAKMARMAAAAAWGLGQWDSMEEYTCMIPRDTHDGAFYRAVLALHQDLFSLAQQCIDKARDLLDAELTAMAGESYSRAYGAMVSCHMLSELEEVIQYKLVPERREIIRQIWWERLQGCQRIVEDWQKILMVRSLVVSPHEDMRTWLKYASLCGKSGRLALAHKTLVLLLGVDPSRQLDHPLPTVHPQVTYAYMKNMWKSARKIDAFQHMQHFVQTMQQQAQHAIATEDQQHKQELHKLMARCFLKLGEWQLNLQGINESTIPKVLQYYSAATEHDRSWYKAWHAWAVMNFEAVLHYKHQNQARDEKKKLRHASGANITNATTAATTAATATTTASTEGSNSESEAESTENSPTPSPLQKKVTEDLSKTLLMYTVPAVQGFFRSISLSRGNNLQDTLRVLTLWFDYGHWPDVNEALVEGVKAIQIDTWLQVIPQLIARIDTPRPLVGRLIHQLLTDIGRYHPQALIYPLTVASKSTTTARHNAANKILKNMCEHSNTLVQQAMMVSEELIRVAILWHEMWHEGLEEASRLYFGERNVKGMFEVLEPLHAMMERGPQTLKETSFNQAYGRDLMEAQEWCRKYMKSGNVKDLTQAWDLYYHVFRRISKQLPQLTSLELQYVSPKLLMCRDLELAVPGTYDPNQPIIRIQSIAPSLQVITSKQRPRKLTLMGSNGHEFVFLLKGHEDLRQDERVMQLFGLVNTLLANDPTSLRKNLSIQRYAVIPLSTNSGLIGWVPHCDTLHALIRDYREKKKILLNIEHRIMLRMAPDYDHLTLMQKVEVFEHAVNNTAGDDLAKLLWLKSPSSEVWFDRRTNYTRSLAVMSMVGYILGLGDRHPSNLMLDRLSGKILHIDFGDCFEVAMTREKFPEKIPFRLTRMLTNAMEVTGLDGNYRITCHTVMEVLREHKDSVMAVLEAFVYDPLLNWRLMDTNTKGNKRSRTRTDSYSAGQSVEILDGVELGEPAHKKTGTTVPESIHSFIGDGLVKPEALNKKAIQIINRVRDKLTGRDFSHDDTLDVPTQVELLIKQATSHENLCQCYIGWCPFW
Sequence of mTOR kinase (purified recombinant mTOR(1360-2549)+GBL) (Q9BVC4 whole entry partner): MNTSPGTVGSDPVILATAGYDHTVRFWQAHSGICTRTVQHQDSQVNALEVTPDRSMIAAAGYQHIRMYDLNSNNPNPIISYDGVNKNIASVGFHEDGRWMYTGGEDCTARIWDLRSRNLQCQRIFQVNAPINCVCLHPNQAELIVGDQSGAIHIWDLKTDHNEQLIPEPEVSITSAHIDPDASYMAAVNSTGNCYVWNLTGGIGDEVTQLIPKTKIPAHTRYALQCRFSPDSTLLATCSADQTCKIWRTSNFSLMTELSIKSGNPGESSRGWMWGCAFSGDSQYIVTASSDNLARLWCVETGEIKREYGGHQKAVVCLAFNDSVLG

SMILES | pKi
O=C(Nc1ccc(-c2nc3c(c(N4CCOCC4)n2)CN(c2ncccn2)C3)cc1)NC1CCCC1 [drawing 572] | > 7.00
CCNC(=O)Nc1ccc(-c2nc3c(c(N4CCOCC4)n2)CCN(C(=O)c2ccncc2)C3)cc1 | > 7.00
CCNC(=O)Nc1ccc(-c2nc3c(c(N4CCCOCC4)n2)CN(S(C)(=O)=O)C3)cc1 | > 7.00
CCNC(=O)Nc1ccc(-c2nc3c(c(N4CCCOCC4)n2)CN(C2CCN(C(C)=O)CC2)C3)cc1 | > 7.00
CC(C)(C)OC(=O)N1Cc2nc(-c3cnc(N)nc3)nc(N3CCOCC3)c2C1 | 5.30 to 7.00
CCNC(=O)Nc1ccc(-c2nc3c(c(N4CCOCC4)n2)CN(Cc2ccc(O)cc2)C3)cc1 | > 7.00
CCNC(=O)Nc1ccc(-c2nc3c(c(N4CCOC[C@@H]4C)n2)CCNC3)cc1 | > 7.00
CCNC(=O)Nc1ccc(-c2nc3c(c(N4CCOCC4)n2)CCN(C(=O)[C@H](C)O)C3)cc1 | > 7.00
CCNC(=O)Nc1ccc(-c2nc3c(c(N4CCOC[C@@H]4C)n2)CCN(c2ccnc(N)n2)C3)cc1 | > 7.00
CNC(=O)Nc1ccc(-c2nc3c(c(N4CCOCC4)n2)CN(Cc2ccc(OC)cc2)C3=O)cc1 | > 7.00
CCNC(=O)Nc1ccc(-c2nc3c(c(N4CCOCC4)n2)CCN(C2CCN(C)CC2)C3)cc1 | > 7.00
CCNC(=O)Nc1ccc(-c2nc3c(c(N4CCOCC4)n2)CN(C(=O)OCc2ccccc2)C3)cc1 | > 7.00
O=C(Nc1ccc(-c2nc3c(c(N4CCOCC4)n2)CCN(c2ncccn2)C3)cc1)NC1CCC1 | > 7.00
CCNC(=O)Nc1ccc(-c2nc3c(c(N4CCOCC4)n2)CCN(C(=O)N2CCOCC2)C3)cc1 | > 7.00
CCNC(=O)Nc1ccc(-c2nc3c(c(N4CCCOCC4)n2)CN(C(=O)OC(C)(C)C)C3)cc1 | > 7.00
CCNC(=O)Nc1ccc(-c2nc3c(c(C4=CCOCC4)n2)CCN(c2ncccn2)C3)cc1 | 5.30 to 7.00
CCNC(=O)Nc1ccc(-c2nc3c(c(N4CCOCC4)n2)CN(Cc2cccc(O)c2)C3)cc1 [drawing 553] | > 7.00
CCNC(=O)Nc1ccc(-c2nc3c(c(N4CCOCC4)n2)CN(C(=O)c2ccccn2)CC3)cc1 | > 7.00
CCNC(=O)Nc1ccc(-c2nc3c(c(N4CCOCC4)n2)CCN(c2ccnc(N)n2)C3)cc1 | > 7.00
CCNC(=O)Nc1ccc(-c2nc3c(c(N4CCOCC4)n2)CN(c2ccnc(N)n2)CC3)cc1 | > 7.00
CCNC(=O)Nc1ccc(-c2nc3c(c(N4CCOCC4)n2)CN(C(=O)c2cccnc2)CC3)cc1 | > 7.00
CCNC(=O)Nc1ccc(-c2nc3c(c(C4CCOCC4)n2)CN(C(=O)OC(C)(C)C)C3)cc1 | 5.30 to 7.00
Cc1nnc(-c2ccc(-c3nc4c(c(N5CCOCC5)n3)CCN(c3ncccn3)C4)cc2)o1 | 5.30 to 7.00

SMILES | pKi
CCNC(=O)Nc1ccc(-c2nc3c(c(N4CCOCC4)n2)CN(C2CCN(C(C)=O)CC2)C3)cc1 | > 7.00
CCNC(=O)Nc1ccc(-c2nc3c(c(N4CCOCC4)n2)CN(C(=O)c2ccc(Cl)cc2)CC3)cc1 | > 7.00
CC(=O)Nc1cccc(-c2nc3c(c(N4CCOCC4)n2)CN(c2ncccn2)C3)c1 | 5.30 to 7.00
CC(=O)Nc1ccc(-c2nc3c(c(N4CCOCC4)n2)CN(c2ncccn2)C3)cc1 | 5.30 to 7.00
O=C(NCC1CC1)Nc1ccc(-c2nc3c(c(N4CCOCC4)n2)CCN(c2ncccn2)C3)cc1 | > 7.00
CCNC(=O)Nc1ccc(-c2nc3c(c(N4CCOCC4)n2)CCN(C(=O)OCc2ccccc2)C3)cc1 | > 7.00
c1cnc(N2CCc3c(nc(-c4ccc(-n5cccn5)cc4)nc3N3CCOCC3)C2)nc1 | 5.30 to 7.00
CS(=O)(=O)Nc1ccc(-c2nc3c(c(N4CCOCC4)n2)CN(c2ncccn2)C3)cc1 | 5.30 to 7.00
CCNC(=O)Nc1ccc(-c2nc3c(c(N4CCOC[C@@H]4C)n2)CN(c2ccnc(N)n2)CC3)cc1 | > 7.00
CN(C)C(=O)Nc1ccc(-c2nc3c(c(N4CCOCC4)n2)CN(c2ncccn2)C3)cc1 | 5.30 to 7.00
CCNC(=O)Nc1ccc(-c2nc3c(c(N4CCOCC4)n2)CCN(C(=O)c2cccnc2)C3)cc1 | > 7.00
O=c1[nH]c2ccc(-c3nc4c(c(N5CCOCC5)n3)CCN(c3ncccn3)C4)cc2[nH]1 | 5.30 to 7.00
CS(=O)(=O)Nc1ccc(-c2nc3c(c(N4CCOCC4)n2)CN(Cc2ccccc2)C3=O)cc1 | 5.30 to 7.00
CCNC(=O)Nc1ccc(-c2nc3c(c(-c4cccnc4)n2)CCN(Cc2ccccc2)C3)cc1 | 5.30 to 7.00
CCCNC(=O)Nc1ccc(-c2nc3c(c(N4CCOCC4)n2)CCN(c2ncccn2)C3)cc1 | 5.30 to 7.00
CC(=O)Nc1ccc(-c2nc3c(c(N4CCOCC4)n2)CN(Cc2ccccc2)C3=O)cc1 | 5.30 to 7.00
CCNC(=O)Nc1ccc(-c2nc3c(c(N4CCOCC4)n2)CCN(C(=O)c2ccccn2)C3)cc1 | > 7.00
CCNC(=O)Nc1ccc(-c2nc3c(c(N4CCCOCC4)n2)CCN(c2ncccn2)C3)cc1 | > 7.00
CCNC(=O)Nc1ccc(-c2nc3c(c(N4CCOCC4)n2)CN(C(=O)c2ccccc2Cl)CC3)cc1 | > 7.00
CCNC(=O)Nc1ccc(-c2nc3c(c(N4CCOC[C@@H]4C)n2)CNCC3)cc1 | > 7.00
CCNC(=O)Nc1ccc(-c2nc3c(c(N4CCOCC4)n2)CN(c2ccnc(N)n2)C3)cc1 | > 7.00
Nc1ccc(-c2nc3c(c(N4CCOCC4)n2)CCN(c2ncccn2)C3)cc1 | 5.30 to 7.00
CCNC(=O)Nc1ccc(-c2nc3c(c(N4CCOCC4)n2)CCN(C(=O)c2cnco2)C3)cc1 | > 7.00

SMILES | pKi
CC(C)NC(=O)Nc1ccc(-c2nc3c(c(N4CCOCC4)n2)CCN(c2ncccn2)C3)cc1 | 5.30 to 7.00
CCNC(=O)Nc1ccc(-c2nc3c(c(N4CCOC[C@@H]4C)n2)CCN(C(=O)OC(C)(C)C)C3)cc1 | > 7.00
O=C(NCCO)Nc1ccc(-c2nc3c(c(N4CCOCC4)n2)CCN(c2ncccn2)C3)cc1 | 5.30 to 7.00
CCNC(=O)Nc1ccc(-c2nc3c(c(N4CCOCC4)n2)CN(C(=O)Cc2ccccc2)CC3)cc1 [drawing 603] | > 7.00
NC(=O)c1ccc(-c2nc3c(c(N4CCOCC4)n2)CN(c2ncccn2)C3)cc1 | 5.30 to 7.00
COc1ccc(CN2Cc3c(nc(-c4cnc(N)nc4)nc3N3CCOCC3)C2=O)cc1 | 5.30 to 7.00
CCNC(=O)Nc1ccc(-c2nc3c(c(N4CCOCC4)n2)CN(Cc2ccccc2)C3)cc1 | > 7.00
CCNC(=O)Nc1ccc(-c2nc3c(c(N4CCOCC4)n2)CCN(C(=O)c2ccnn2C)C3)cc1 | > 7.00
CCNC(=O)Nc1ccc(-c2nc3c(c(N4CCOCC4)n2)CCN(c2ncccn2)C3)cc1 | > 7.00
CCNC(=O)Nc1ccc(-c2nc3c(c(N4CCCOCC4)n2)CN(S(=O)(=O)c2ccccc2)C3)cc1 | > 7.00
CCNC(=O)Nc1ccc(-c2nc3c(c(N4CCCOCC4)n2)CCN(C(C)=O)C3)cc1 | > 7.00
CCNC(=O)Nc1ccc(-c2nc3c(c(N4CCOCC4)n2)CN(C(=O)c2ccncc2)CC3)cc1 | > 7.00
c1cnc(N2CCc3c(nc(-c4ccc5[nH]ncc5c4)nc3N3CCOCC3)C2)nc1 [drawing 585] | 5.30 to 7.00
CCNC(=O)Nc1ccc(-c2nc3c(c(N4CCCOCC4)n2)CN(C(=O)OCc2ccccc2)C3)cc1 [drawing 567] | > 7.00
CCNC(=O)Nc1ccc(-c2nc3c(c(N4CCOCC4)n2)CNCC3)cc1 | > 7.00
CCNC(=O)Nc1ccc(-c2nc3c(c(N4CCCOCC4)n2)CCN(C(=O)OCc2ccccc2)C3)cc1 | > 7.00
CCNC(=O)Nc1ccc(-c2nc3c(c(N4CCOCC4)n2)CN(C(=O)/C=C/c2ccccc2)CC3)cc1 | > 7.00
CCNC(=O)Nc1ccc(-c2nc3c(c(N4CCOCC4)n2)CN(C(=O)OCC)C3)cc1 | > 7.00
CCNC(=O)Nc1ccc(-c2nc3c(c(N4CCCOCC4)n2)CN(c2ncccn2)C3)cc1 | > 7.00
CCNC(=O)Nc1ccc(-c2nc3c(c(N4CCOCC4)n2)CCN(C(=O)c2cocn2)C3)cc1 | > 7.00
O=C(Nc1ccc(-c2nc3c(c(N4CCOCC4)n2)CCN(c2ncccn2)C3)cc1)NC1CC1 | > 7.00
CCNC(=O)Nc1ccc(-c2nc3c(c(N4CCOCC4)n2)CCN(C(=O)c2c(C)oc4ncn(C)c(=O)c24)C3)cc1 | > 7.00
CCNC(=O)Nc1ccc(-c2nc3c(c(C4CCOCC4)n2)CCN(c2ncccn2)C3)cc1 | 5.30 to 7.00

same assay, conditions: mTOR kinase assay of Example 496; read-out: Ki

SMILES | pKi
C[C@H]1COCCN1c1nc(-c2ccc(NC(=O)NCC(F)F)cc2)nc2c1CN(C(=O)c1nccs1)CC2 | 7.49
O=C(Nc1ccc(-c2nc3c(c(N4CCOCC4)n2)CN(c2ncccn2)C3)cc1)NC1CCCC1 [drawing 626] | 7.39
CCNC(=O)Nc1ccc(-c2nc3c(c(N4CCOCC4)n2)CCN2C(=O)N(CC)CC[C@@H]32)cc1 | 8.30
c1cnc(N2CCc3c(nc(-c4ccc5[nH]ncc5c4)nc3N3CCOCC3)C2)nc1 [drawing 628] | 6.20
CCNC(=O)Nc1ccc(-c2nc3c(c(N4CCOCC4)n2)CN(C(=O)Cc2ccccc2)CC3)cc1 [drawing 633] | 7.28
CCNC(=O)Nc1ccc(-c2nc3c(c(N4CCOC[C@@H]4C)n2)CCN(c2nc(C)cc(C)n2)C3)cc1 | 8.40
CCNC(=O)Nc1ccc(-c2nc3c(c(N4CCOCC4)n2)CN(Cc2cccc(O)c2)C3)cc1 [drawing 624] | 8.05
CCNC(=O)Nc1ccc(-c2nc3c(c(N4CCCOCC4)n2)CN(C(=O)OCc2ccccc2)C3)cc1 [drawing 625] | 8.70
CC(=O)Nc1ccc(-c2nc3c(c(N4CCCOCC4)n2)CN(Cc2ccccc2)C3=O)cc1 | 6.60
CC(C)(C)OC(=O)N1Cc2nc(-c3cnc(N)nc3)nc(C3C=COCC3)c2C1 (stereo not shown) | 6.12
